{"source": "patent US20100034867A1", "about": "“DRUG DELIVERY COATING FOR USE WITH A MEDICAL DEVICE AND METHODS OF TREATING VASCULAR INJURY” (ATRIUM MEDICAL CORPORATION, priority 2005, published 2010)", "key": {"rabbit illiac arteries [1]": {"tested_on": "rabbit illiac arteries", "conditions": "in vivo, 28 days"}, "rabbit illiac arteries [2]": {"tested_on": "rabbit illiac arteries", "assay": "Methylprednisolone/Cilostazol/Paclitaxel/Taxus study: stents implanted in rabbit iliac arteries for 28 days, histomorphic and histopathologic analyses", "conditions": "for reduction in neointima (in words): coated stents; for EEL Area / IEL Area / Intimal Area / Lumen Area / Stenosis: ALPHA-3 coated Atrium Flyer stent, mean ± SD"}, "rabbit's iliac vessel": {"tested_on": "rabbit's iliac vessel", "assay": "Rapamycin drug eluting stents in rabbit iliac vessel (inflammation, overlapping stents)", "type": "in vivo", "source_text": "The inventors postulate, based on these animal study results, that one consequence of these types of drugs is retarded endothelial cell coverage, and that current drug eluting stents promote more chronic inflammation than would normally be present with a non drug eluting bare metal stent."}, "rabbit illiac arteries [3]": {"tested_on": "rabbit illiac arteries", "conditions": "in vivo", "description": "The Atrium Flyer is compared with bare metal stents, the Atrium Flyer coated with ALPHA-3 without drugs, and Cypher™ drug eluting stent. Histomorphic and histopathologic analyses are then performed."}, "rabbit iliacs": {"tested_on": "rabbit iliacs", "assay": "Local delivery of calcineurin inhibiting compounds after vascular injury in rabbit iliacs", "type": "in vivo", "source_text": "Studies in rabbit iliacs following vascular injury conducted by and/or on behalf of the inventors show the benefits of using calcineurin inhibiting compounds like Tacrolimus, Cyclosporin A (CsA) and Cyclosporin derivatives, in small animals like the rat, and in rabbits. […] Such vascular injury and sirolimus medicated inflammation can be characterized as having excessive giant cell formation and esinophil propagation."}}, "note": "Where two headings read alike, the source gives them in different places.", "data": [{"smiles": "O=C1CCc2cc(OCCCCc3nnnn3C3CCCCC3)ccc2N1", "note": "[Cilostazol]", "values": [{"measurement": "Fibrin Score", "setting": "rabbit illiac arteries [1]", "result": 0}, {"measurement": "reduction in neointima (in words)", "setting": "rabbit illiac arteries [2]", "result": "No reduction in neointima"}]}, {"smiles": "CO[C@H]1C[C@@H]2CC[C@@H](C)[C@@](O)(O2)C(=O)C(=O)N2CCCC[C@H]2C(=O)O[C@H]([C@H](C)C[C@@H]2CC[C@@H](O)[C@H](OC)C2)CC(=O)[C@H](C)/C=C(\\C)[C@@H](O)[C@@H](OC)C(=O)[C@H](C)C[C@H](C)/C=C/C=C/C=C/1C", "note": "[Sirolimus]", "values": [{"measurement": "inflammatory response around the drug eluting stent", "setting": "rabbit's iliac vessel; rabbit iliacs", "result": "presence of numerous giant cells and esinophils"}, {"measurement": "inflammation induced by the overlapping drug coating", "setting": "rabbit's iliac vessel; two separate drug eluting stents overlapping in rabbit iliac vessel", "result": "increases nearly two fold"}, {"measurement": "tolerability of the coated stent", "setting": "rabbit illiac arteries [3]", "result": "well tolerated, producing no adverse reaction"}, {"measurement": "arterial healing compared with Taxus Express", "setting": "rabbit illiac arteries [2]; Atrium stents, high dose", "result": "(greater) arterial healing at 28 days compared with Taxus™ Express"}]}, {"smiles": "C=CC[C@@H]1/C=C(\\C)C[C@H](C)C[C@H](OC)[C@H]2O[C@@](O)(C(=O)C(=O)N3CCCC[C@H]3C(=O)O[C@H](/C(C)=C/[C@@H]3CC[C@@H](O)[C@H](OC)C3)[C@H](C)[C@@H](O)CC1=O)[C@H](C)C[C@@H]2OC", "note": "[Tacrolimus]", "values": [{"measurement": "inflammation following vascular injury", "setting": "rabbit iliacs", "result": "effectively reduce inflammation following vascular injury"}]}, {"smiles": "C[C@H]1C[C@@H]2[C@H]([C@@H](O)C[C@@]3(C)[C@H]2CC[C@]3(O)C(=O)CO)[C@@]2(C)C=CC(=O)C=C12", "note": "[Methylprednilsolone]", "values": [{"measurement": "EEL Area", "setting": "rabbit illiac arteries [2]; high dose", "result": "5.50 ± 0.26", "unit": "mm^2"}, {"measurement": "IEL Area", "setting": "rabbit illiac arteries [2]; high dose", "result": "5.25 ± 0.24", "unit": "mm^2"}, {"measurement": "Intimal Area", "setting": "rabbit illiac arteries [2]; high dose", "result": "1.165 ± 0.231", "unit": "mm^2"}, {"measurement": "Lumen Area", "setting": "rabbit illiac arteries [2]; high dose", "result": "4.08 ± 0.21", "unit": "mm^2"}, {"measurement": "Stenosis", "setting": "rabbit illiac arteries [2]; high dose", "result": "22.2 ± 1.4", "unit": "%"}, {"measurement": "EEL Area", "setting": "rabbit illiac arteries [2]; low dose", "result": "5.90 ± 0.92", "unit": "mm^2"}, {"measurement": "IEL Area", "setting": "rabbit illiac arteries [2]; low dose", "result": "5.62 ± 0.90", "unit": "mm^2"}, {"measurement": "Intimal Area", "setting": "rabbit illiac arteries [2]; low dose", "result": "1.054 ± 0.923", "unit": "mm^2"}, {"measurement": "Lumen Area", "setting": "rabbit illiac arteries [2]; low dose", "result": "4.42 ± 0.82", "unit": "mm^2"}, {"measurement": "Stenosis", "setting": "rabbit illiac arteries [2]; low dose", "result": "21.5 ± 4.7", "unit": "%"}, {"measurement": "EEL Area", "setting": "rabbit illiac arteries [2]; mid-dose", "result": "5.68 ± 0.34", "unit": "mm^2"}, {"measurement": "IEL Area", "setting": "rabbit illiac arteries [2]; mid-dose", "result": "5.40 ± 0.30", "unit": "mm^2"}, {"measurement": "Intimal Area", "setting": "rabbit illiac arteries [2]; mid-dose", "result": "1.247 ± 0.136", "unit": "mm^2"}, {"measurement": "Lumen Area", "setting": "rabbit illiac arteries [2]; mid-dose", "result": "4.16 ± 0.40", "unit": "mm^2"}, {"measurement": "Stenosis", "setting": "rabbit illiac arteries [2]; mid-dose", "result": "23.1 ± 2.2", "unit": "%"}, {"measurement": "reduction in neointima (in words)", "setting": "rabbit illiac arteries [2]", "result": "No reduction in neointima"}]}, {"smiles": "CC(=O)O[C@H]1C(=O)[C@@]2(C)[C@H]([C@H](OC(=O)c3ccccc3)[C@]3(O)C[C@H](OC(=O)[C@H](O)[C@@H](NC(=O)c4ccccc4)c4ccccc4)C(C)=C1C3(C)C)[C@]1(OC(C)=O)CO[C@@H]1C[C@@H]2O", "note": "[Paclitaxel]", "values": [{"measurement": "Fibrin Score", "setting": "rabbit illiac arteries [1]", "result": 0}, {"measurement": "arterial healing compared with Taxus Express", "setting": "rabbit illiac arteries [1]", "result": "(greater) arterial healing at 28 days compared with Taxus™ Express"}, {"measurement": "in-stent neointimal growth (in words)", "setting": "rabbit illiac arteries [2]; Atrium stents, high dose", "result": "suppresses in-stent neointimal growth at 28 days similarly to the Taxus™ Express stent"}]}]}
